# Test results published in patent US20040044055A1, “N-alkoxlyalkyl-substituted benzimidazoles and the use thereof as an agent against parastic protozoans” (priority 2000, published 2004).
# Experiments:
# Format in all cases: in vivo
# Eimeria tenella = test: Cage experiment on coccidiosis/chicks; conditions: chicks; for Efficacy against Eimeria tenella: 3rd figure of cell
# Procedure: (§1) 8- to 12- day-old male chicks (e.g. LSL Brinkschulte/Senden) which have been reared coccidia-free receive the compounds according to the invention (test substances) in the concentration indicated in ppm with the feed from 3 days before (day −3) infection (=a.i.) until 8 (9) days after infection (=p.i.). 3 animals are kept in each cage. One or more groups of this type are employed per dose. Infection is carried out by means of a stomach tube directly into the crop with approximately 100,000 sporulated oocysts of Eimeria acervulina and with approximately 30,000 oocysts each of E. maxima and 40,000 sporulated oocysts of E. tenella. These are highly virulent strains. The exact infection dose is adjusted so that, if possible, one of three experimentally infected untreated chicks dies due to the infection. For assessment of the efficacy, the following criteria are taken into account: weight increase from the start of the experiment to the end of the experiment, death rate due to infection, macroscopic assessment of the faeces with respect to diarrhoea and excretion of blood on days 5 and 7 p.i. (assessment 0 to 6), macroscopic assessment of the intestinal mucosa, in particular of the appendices (assessment 0 to 6) and the oocyst excretion as well as the proportion (in %) of the oocysts sporulating in the course of 24 hours. The number of oocysts in the faeces was determined with the aid of a McMaster counting chamber (see Engelbrecht and coworkers “Parasitologische Arbeitsmethoden in Medizin and Veterinärmedizin” [Parasitological Working Methods in Medicine and Veterinary Medicine], Akademie-Verlag, Berlin (1965)). The individual findings are related to the untreated non-infected control groups and a total score is calculated (cf. A. Haberkorn (1986), pp. 263 to 270 in Research in Avian Coccidiosis ed L. R. McDougald, L. P. Joyner, P. L. Long, Proceedings of the Georgia Coccidiosis Conference, Nov. 18-20, 1985, Athens/Ga. USA).
# (§2) In the column “ppm”, the concentration of the active compound employed in the feed is indicated in ppm.
# (§3) In the column “mortality”, the percentage of the dead animals is indicated under % and the number of dead animals/animals employed in the experiment is indicated under n.
# (§4) In the column “weight % of not inf. control”, the ratio of the weight of the treated animals to the weight of the non-infected control group is indicated.
# (§5) In the columns “dropping scores”, “lesion score” and “oocyst control”, individual details of the action are given.
# (§6) In the column “% efficacy”, the total score is assessed; 0% means no action, 100% means full action.
# Eimeria maxima = test: Cage experiment on coccidiosis/chicks; conditions: chicks; for Efficacy against Eimeria maxima: 2nd figure of cell
# Procedure: as §1, §2, §3, §4, §5, §6
# Eimeria acervulina = test: Cage experiment on coccidiosis/chicks; conditions: chicks; for Efficacy against Eimeria acervulina: 1st figure of cell
# Procedure: as §1, §2, §3, §4, §5, §6
# [1] = system: Eimeria acervulina, Eimeria maxima and Eimeria tenella; test: Cage experiment on coccidiosis/chicks, mixed experimental infection; conditions: chicks; for dropping scores / lesion score: assessment 0 to 6; for mortality n: dead animals/animals employed; for % efficay tot.: total score
# Procedure: as §1, §2, §3, §4, §5, §6
smiles,measurement,setting,value
CCOCn1c(C(F)(F)F)nc2cc(OC(F)(F)F)c(C(F)(F)F)cc21 [Ex. 1],Efficacy against Eimeria tenella,Eimeria tenella; 1 ppm in feed,1
same,Efficacy against Eimeria tenella,Eimeria tenella; 2.5 ppm in feed,2
same,Efficacy against Eimeria tenella,Eimeria tenella; 5 ppm in feed,2
same,Efficacy against Eimeria tenella,Eimeria tenella; 7.5 ppm in feed,2
same,Efficacy against Eimeria tenella,Eimeria tenella; 10 ppm in feed,1
same,Efficacy against Eimeria maxima,Eimeria maxima; 1 ppm in feed,1
same,Efficacy against Eimeria maxima,Eimeria maxima; 2.5 ppm in feed,2
same,Efficacy against Eimeria maxima,Eimeria maxima; 5 ppm in feed,2
same,Efficacy against Eimeria maxima,Eimeria maxima; 7.5 ppm in feed,2
same,Efficacy against Eimeria maxima,Eimeria maxima; 10 ppm in feed,2
same,Efficacy against Eimeria acervulina,Eimeria acervulina; 1 ppm in feed,0
same,Efficacy against Eimeria acervulina,Eimeria acervulina; 2.5 ppm in feed,2
same,Efficacy against Eimeria acervulina,Eimeria acervulina; 5 ppm in feed,2
same,Efficacy against Eimeria acervulina,Eimeria acervulina; 7.5 ppm in feed,2
same,Efficacy against Eimeria acervulina,Eimeria acervulina; 10 ppm in feed,2
CC(C)COCn1c(C(F)(F)F)nc2cc(OC(F)(F)F)c(C(F)(F)F)cc21 [Ex. 2],Efficacy against Eimeria tenella,Eimeria tenella; 1 ppm in feed,1
same,Efficacy against Eimeria tenella,Eimeria tenella; 2.5 ppm in feed,1
same,Efficacy against Eimeria tenella,Eimeria tenella; 5 ppm in feed,0
same,Efficacy against Eimeria tenella,Eimeria tenella; 7.5 ppm in feed,1
same,Efficacy against Eimeria tenella,Eimeria tenella; 10 ppm in feed,1
same,Efficacy against Eimeria tenella,Eimeria tenella; 25 ppm in feed,2
same,Efficacy against Eimeria tenella,Eimeria tenella; 50 ppm in feed,2
same,oocyst in % of inf. control ten.,Eimeria tenella; Ex. 2 2.5 ppm in feed,>100%
same,oocyst in % of inf. control ten.,Eimeria tenella; Ex. 2 5 ppm in feed,98%
same,oocyst in % of inf. control ten.,Eimeria tenella; Ex. 2 7.5 ppm in feed,23%
same,oocyst in % of inf. control ten.,Eimeria tenella; Ex. 2 10 ppm in feed,65%
same,Efficacy against Eimeria maxima,Eimeria maxima; 1 ppm in feed,1
same,Efficacy against Eimeria maxima,Eimeria maxima; 2.5 ppm in feed,1
same,Efficacy against Eimeria maxima,Eimeria maxima; 5 ppm in feed,1
same,Efficacy against Eimeria maxima,Eimeria maxima; 7.5 ppm in feed,1
same,Efficacy against Eimeria maxima,Eimeria maxima; 10 ppm in feed,2
same,Efficacy against Eimeria maxima,Eimeria maxima; 25 ppm in feed,2
same,Efficacy against Eimeria maxima,Eimeria maxima; 50 ppm in feed,2
same,oocyst in % of inf. control max.,Eimeria maxima; Ex. 2 2.5 ppm in feed,>100%
same,oocyst in % of inf. control max.,Eimeria maxima; Ex. 2 5 ppm in feed,0%
same,oocyst in % of inf. control max.,Eimeria maxima; Ex. 2 7.5 ppm in feed,0%
same,oocyst in % of inf. control max.,Eimeria maxima; Ex. 2 10 ppm in feed,>100%
same,Efficacy against Eimeria acervulina,Eimeria acervulina; 1 ppm in feed,1
same,Efficacy against Eimeria acervulina,Eimeria acervulina; 2.5 ppm in feed,1
same,Efficacy against Eimeria acervulina,Eimeria acervulina; 5 ppm in feed,0
same,Efficacy against Eimeria acervulina,Eimeria acervulina; 7.5 ppm in feed,1
same,Efficacy against Eimeria acervulina,Eimeria acervulina; 10 ppm in feed,1
same,Efficacy against Eimeria acervulina,Eimeria acervulina; 25 ppm in feed,2
same,Efficacy against Eimeria acervulina,Eimeria acervulina; 50 ppm in feed,2
same,oocyst in % of inf. control ac.,Eimeria acervulina; Ex. 2 2.5 ppm in feed,>100%
same,oocyst in % of inf. control ac.,Eimeria acervulina; Ex. 2 5 ppm in feed,54%
same,oocyst in % of inf. control ac.,Eimeria acervulina; Ex. 2 7.5 ppm in feed,56%
same,oocyst in % of inf. control ac.,Eimeria acervulina; Ex. 2 10 ppm in feed,93%
same,mortality %,[1]; Ex. 2 2.5 ppm in feed,33%
same,oocyst in % of inf. control tot.,[1]; Ex. 2 2.5 ppm in feed,>100%
same,weight % of not inf. control,[1]; Ex. 2 2.5 ppm in feed,33%
same,dropping scores,[1]; Ex. 2 2.5 ppm in feed,6
same,lesion score,[1]; Ex. 2 2.5 ppm in feed,6
same,mortality n,[1]; Ex. 2 2.5 ppm in feed,1/3
same,% efficay tot.,[1]; Ex. 2 2.5 ppm in feed,2%
same,mortality %,[1]; Ex. 2 5 ppm in feed,33%
same,oocyst in % of inf. control tot.,[1]; Ex. 2 5 ppm in feed,73%
same,weight % of not inf. control,[1]; Ex. 2 5 ppm in feed,65%
same,dropping scores,[1]; Ex. 2 5 ppm in feed,6
same,lesion score,[1]; Ex. 2 5 ppm in feed,6
same,mortality n,[1]; Ex. 2 5 ppm in feed,1/3
same,% efficay tot.,[1]; Ex. 2 5 ppm in feed,37%
same,mortality %,[1]; Ex. 2 7.5 ppm in feed,33%
same,oocyst in % of inf. control tot.,[1]; Ex. 2 7.5 ppm in feed,41%
same,weight % of not inf. control,[1]; Ex. 2 7.5 ppm in feed,74%
same,dropping scores,[1]; Ex. 2 7.5 ppm in feed,6
same,lesion score,[1]; Ex. 2 7.5 ppm in feed,6
same,mortality n,[1]; Ex. 2 7.5 ppm in feed,1/3
same,% efficay tot.,[1]; Ex. 2 7.5 ppm in feed,36%
same,mortality %,[1]; Ex. 2 10 ppm in feed,0%
same,oocyst in % of inf. control tot.,[1]; Ex. 2 10 ppm in feed,83%
same,weight % of not inf. control,[1]; Ex. 2 10 ppm in feed,69%
same,dropping scores,[1]; Ex. 2 10 ppm in feed,6
same,lesion score,[1]; Ex. 2 10 ppm in feed,6
same,mortality n,[1]; Ex. 2 10 ppm in feed,0/3
same,% efficay tot.,[1]; Ex. 2 10 ppm in feed,17%
CCOCn1c(C(F)(F)F)nc2c(C(F)(F)F)cc(OC(F)(F)F)cc21 [Ex. 3],Efficacy against Eimeria tenella,Eimeria tenella; 1 ppm in feed,0
same,Efficacy against Eimeria tenella,Eimeria tenella; 2.5 ppm in feed,1
same,Efficacy against Eimeria tenella,Eimeria tenella; 5 ppm in feed,2
same,Efficacy against Eimeria tenella,Eimeria tenella; 7.5 ppm in feed,2
same,Efficacy against Eimeria tenella,Eimeria tenella; 10 ppm in feed,1
same,Efficacy against Eimeria maxima,Eimeria maxima; 1 ppm in feed,0
same,Efficacy against Eimeria maxima,Eimeria maxima; 2.5 ppm in feed,2
same,Efficacy against Eimeria maxima,Eimeria maxima; 5 ppm in feed,2
same,Efficacy against Eimeria maxima,Eimeria maxima; 7.5 ppm in feed,2
same,Efficacy against Eimeria maxima,Eimeria maxima; 10 ppm in feed,1
same,Efficacy against Eimeria acervulina,Eimeria acervulina; 1 ppm in feed,0
same,Efficacy against Eimeria acervulina,Eimeria acervulina; 2.5 ppm in feed,2
same,Efficacy against Eimeria acervulina,Eimeria acervulina; 5 ppm in feed,2
same,Efficacy against Eimeria acervulina,Eimeria acervulina; 7.5 ppm in feed,2
same,Efficacy against Eimeria acervulina,Eimeria acervulina; 10 ppm in feed,1
"CO[C@@H]1[C@@H](OC)[C@H](C)[C@@](O)(CC(=O)O)O[C@H]1[C@H](C)[C@H]1O[C@@]2(CC[C@@](C)([C@H]3CC[C@@](C)([C@@H]4O[C@@H]([C@H]5O[C@](C)(O)[C@H](C)C[C@@H]5C)C[C@@H]4O[C@@H]4C[C@H](OC)[C@@H](OC)[C@H](C)O4)O3)O2)C[C@H](O)[C@H]1C [MAD, maduramicin, reference compound]",oocyst in % of inf. control ten.,Eimeria tenella; MAD 1 ppm in feed,85%
same,oocyst in % of inf. control ten.,Eimeria tenella; MAD 2 ppm in feed,>100%
same,oocyst in % of inf. control ten.,Eimeria tenella; MAD 3 ppm in feed,75%
same,oocyst in % of inf. control max.,Eimeria maxima; MAD 1 ppm in feed,>100%
same,oocyst in % of inf. control max.,Eimeria maxima; MAD 2 ppm in feed,>100%
same,oocyst in % of inf. control max.,Eimeria maxima; MAD 3 ppm in feed,>100%
same,oocyst in % of inf. control ac.,Eimeria acervulina; MAD 1 ppm in feed,>100%
same,oocyst in % of inf. control ac.,Eimeria acervulina; MAD 2 ppm in feed,>100%
same,oocyst in % of inf. control ac.,Eimeria acervulina; MAD 3 ppm in feed,>100%
same,mortality %,[1]; MAD 1 ppm in feed,67%
same,oocyst in % of inf. control tot.,[1]; MAD 1 ppm in feed,>100%
same,weight % of not inf. control,[1]; MAD 1 ppm in feed,17%
same,dropping scores,[1]; MAD 1 ppm in feed,6
same,lesion score,[1]; MAD 1 ppm in feed,6
same,mortality n,[1]; MAD 1 ppm in feed,2/3
same,% efficay tot.,[1]; MAD 1 ppm in feed,0%
same,mortality %,[1]; MAD 2 ppm in feed,0%
same,oocyst in % of inf. control tot.,[1]; MAD 2 ppm in feed,>100%
same,weight % of not inf. control,[1]; MAD 2 ppm in feed,82%
same,dropping scores,[1]; MAD 2 ppm in feed,2
same,lesion score,[1]; MAD 2 ppm in feed,6
same,mortality n,[1]; MAD 2 ppm in feed,0/3
same,% efficay tot.,[1]; MAD 2 ppm in feed,29%
same,mortality %,[1]; MAD 3 ppm in feed,0%
same,oocyst in % of inf. control tot.,[1]; MAD 3 ppm in feed,>100%
same,weight % of not inf. control,[1]; MAD 3 ppm in feed,98%
same,dropping scores,[1]; MAD 3 ppm in feed,0
same,lesion score,[1]; MAD 3 ppm in feed,1
same,mortality n,[1]; MAD 3 ppm in feed,0/3
same,% efficay tot.,[1]; MAD 3 ppm in feed,44%
